The target in assay [1] is T1, human adrenergic-α2C receptor (Homo sapiens, UniProt P18825).
T1 construct: expressed in transfected cells; membrane preparation
T1 sequence (P18825 1-462): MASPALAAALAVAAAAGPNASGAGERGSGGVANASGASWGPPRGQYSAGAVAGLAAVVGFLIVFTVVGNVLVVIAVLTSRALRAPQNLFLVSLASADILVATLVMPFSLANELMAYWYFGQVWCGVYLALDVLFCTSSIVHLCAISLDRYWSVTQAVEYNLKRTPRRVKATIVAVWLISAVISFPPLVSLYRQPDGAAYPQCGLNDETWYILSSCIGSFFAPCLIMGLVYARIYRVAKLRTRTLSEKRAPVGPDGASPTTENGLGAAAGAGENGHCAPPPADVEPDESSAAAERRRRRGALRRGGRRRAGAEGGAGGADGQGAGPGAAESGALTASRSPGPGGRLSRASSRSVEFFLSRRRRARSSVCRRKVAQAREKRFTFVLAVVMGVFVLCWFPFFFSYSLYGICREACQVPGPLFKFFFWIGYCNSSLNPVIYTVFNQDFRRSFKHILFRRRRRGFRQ
The experiment in a line: Radioligand binding experiment for α2C-adrenoceptor ([3H]-raulwolscine competition, CHO cell membranes). The following applies: [3H]raulwolscine 1 nM, membranes of CHO cells transfected with human α2C receptor; for IC50: read-out: pIC50 α2C (converted). The method, then: (§1) The interaction of the compounds of Formula (I) with α2C-adrenoceptor receptors was assessed in in vitro radioligand binding experiments. In general, a low concentration of a radioligand with a high binding affinity for a particular receptor or transporter is incubated with a sample of a tissue preparation enriched in a particular receptor or transporter or with a preparation of cells expressing cloned human receptors in a buffered medium. During the incubation, the radioligand binds to the receptor or transporter. When equilibrium of binding is reached, the receptor bound radioactivity is separated from the non-bound radioactivity, and the receptor- or transporter-bound activity is counted. The interaction of the test compounds with the receptor is assessed in competition binding experiments. Various concentrations of the test compound are added to the incubation mixture containing the receptor- or transporter preparation and the radioligand. The test compound in proportion to its binding affinity and its concentration inhibits binding of the radioligand. The radioligand used for […] receptor binding was [^3H]-raulwolscine.
(§2) CHO cells, stabile transfected with human adrenergic-α2A-, -α2B or α2C receptor cDNA, were cultured in Dulbecco's Modified Eagle's Medium (DMEM)/Nutrient mixture Ham's F12 (ratio 1:1)(Gibco, Gent-Belgium) supplemented with 10% heat inactivated fetal calf serum (Life Technologies, Merelbeke-Belgium) and antibiotics (100 IU/ml penicillin G, 100 μg/ml streptomycin sulphate, 110 μg/ml pyruvic acid and 100 μg/ml L-glutamine). One day before collection, cells were induced with 5 mM sodiumbutyrate. Upon 80-90% of confluence, cells were scraped in phosphate buffered saline without Ca^2+ and Mg^2+ and collected by centrifugation at 1500×g for 10 min. The cells were homogenised in Tris-HCl 50 mM using an Ultraturrax homogenizer and centrifuged for 10 min at 23,500×g. The pellet was washed once by resuspension and rehomogenization and the final pellet was resuspended in Tris-HCl, divided in 1 ml aliquots and stored at −70° C.
(§3) Membranes were thawed and re-homogenized in incubation buffer (glycylglycine 25 mM, pH 8.0). In a total volume of 500 μl, 2-10 μg protein was incubated with [^3H]raulwolscine (NET-722) (New England Nuclear, USA) (1 nM final concentration) with or without competitor for 60 min at 25° C. followed by rapid filtration over GF/B filter using a Filtermate196 harvester (Packard, Meriden, Conn.). Filters were rinsed extensively with ice-cold rinsing buffer (Tris-HCl 50 mM pH 7.4). Filter-bound radioactivity was determined by scintillation counting in a Topcount (Packard, Meriden, CT) and results were expressed as counts per minute (cpm). Non-specific binding was determined in the presence of 1 μM oxymetazoline for hα2A- and hα2B receptors and 1 μM spiroxatrine for hα2C receptors.
(§4) Data from assays in the presence of compound were calculated as a percentage of total binding measured in the absence of test compound. Inhibition curves, plotting percent of total binding versus the log value of the concentration of the test compound, were automatically generated, and sigmoidal inhibition curves were fitted using non-linear regression. The pIC50 values of test compounds were derived from individual curves.

Assay [2] has as its target T2, human adrenergic-α2A receptor (Homo sapiens, UniProt P08913).
T2 construct: expressed in transfected cells; membrane preparation
T2 sequence (P08913 1-465): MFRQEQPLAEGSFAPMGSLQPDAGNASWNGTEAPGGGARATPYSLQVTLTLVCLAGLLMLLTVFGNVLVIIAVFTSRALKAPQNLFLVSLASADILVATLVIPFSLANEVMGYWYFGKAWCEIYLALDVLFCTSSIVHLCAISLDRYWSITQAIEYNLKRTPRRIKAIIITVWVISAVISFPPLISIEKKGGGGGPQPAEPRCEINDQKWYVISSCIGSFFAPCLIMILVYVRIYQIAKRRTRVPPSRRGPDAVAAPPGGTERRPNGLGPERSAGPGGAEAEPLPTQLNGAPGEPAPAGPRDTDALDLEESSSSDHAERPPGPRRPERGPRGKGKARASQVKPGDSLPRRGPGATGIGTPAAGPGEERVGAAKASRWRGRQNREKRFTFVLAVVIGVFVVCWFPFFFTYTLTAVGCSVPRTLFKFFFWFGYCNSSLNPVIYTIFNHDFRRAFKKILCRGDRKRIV
Kind of assay: Radioligand binding experiment for α2A-adrenoceptor ([3H]-raulwolscine competition, CHO cell membranes). Conditions: [3H]raulwolscine 1 nM, membranes of CHO cells transfected with human α2A receptor; read-out: pIC50 α2A (converted). On the procedure: as §1, §2, §3, §4

The target of assay [3] is T3, human adrenergic-α2B receptor (Homo sapiens, UniProt P18089).
T3 construct: expressed in transfected cells; membrane preparation
T3 sequence (P18089 1-450): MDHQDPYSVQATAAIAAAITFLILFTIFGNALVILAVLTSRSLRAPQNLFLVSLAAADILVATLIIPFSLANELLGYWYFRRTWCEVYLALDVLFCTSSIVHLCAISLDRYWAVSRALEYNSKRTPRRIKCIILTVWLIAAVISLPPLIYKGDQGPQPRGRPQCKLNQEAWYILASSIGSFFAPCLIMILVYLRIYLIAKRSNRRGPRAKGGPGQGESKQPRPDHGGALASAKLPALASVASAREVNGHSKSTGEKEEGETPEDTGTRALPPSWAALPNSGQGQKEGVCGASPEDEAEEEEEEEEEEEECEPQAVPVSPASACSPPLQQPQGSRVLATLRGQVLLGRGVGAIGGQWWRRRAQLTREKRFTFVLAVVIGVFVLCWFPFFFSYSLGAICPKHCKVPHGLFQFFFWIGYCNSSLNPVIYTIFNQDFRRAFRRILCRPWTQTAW
Kind of assay: Radioligand binding experiment for α2B-adrenoceptor ([3H]-raulwolscine competition, CHO cell membranes). The following applies: [3H]raulwolscine 1 nM, membranes of CHO cells transfected with human α2B receptor; for IC50: read-out: pIC50 α2B (converted). On the procedure:
as §1, §2, §3, §4

On to `CC(NCCOc1ccccc1)C(C)n1ncn(-c2ccc(N3CCN(c4ccc(O)cc4)CC3)cc2)c1=O` (single isomer, unassigned) [compound 7], for which the IC50 in assay [1] is 7.94 nM; in assay [2], 126 nM; in assay [3], 126 nM.

In the case of `O=c1n(-c2ccc(CN3CCN(c4ccccc4)CC3)cc2)cnn1CCNCCOc1ccccc1` [compound 2], the IC50 in assay [1] is 25.1 nM; in assay [2] it was 200 nM; in assay [3] it was 200 nM.

Take `O=c1n(-c2ccc(N3CCN(Cc4ccccc4)CC3)cc2)cnn1CCNCCOc1ccccc1` [compound 3]: the IC50 was 15.8 nM in assay [1], 398 nM in assay [2] and 251 nM in assay [3].

As to `COc1ccc(N2CCN(c3ccc(-n4cnn(CCNCCOc5ccccc5)c4=O)cc3)CC2)cc1` [compound 8], the IC50 in assay [1] was 15.8 nM; in assay [2], 631 nM; in assay [3], 158 nM.

For the compound `COc1ccc(N2CCN(c3ccc(-n4cnn(C(C)C(C)NCCOc5ccccc5)c4=O)cc3)CC2)cc1` (stereo not drawn) [compound 10], the IC50 in assay [1] is 15.8 nM; in assay [2] it was 631 nM; in assay [3], 501 nM.

Regarding `CN1CCCN(c2ccc(-n3cnn(CCNCCOc4ccccc4)c3=O)cc2)CC1` [compound 12], the IC50 in assay [1] is 1.58 nM; in assay [2], 126 nM; in assay [3] it was 100 nM.

Turning to `CN1CCCN(Cc2ccc(-n3cnn(CCNCCOc4ccccc4)c3=O)cc2)CC1` [compound 13], the IC50 in assay [1] was 1 nM; in assay [2], 63.1 nM; in assay [3], 63.1 nM.

Regarding `O=c1n(-c2ccc(CN3CCCC3)cc2)cnn1CCNCCOc1ccccc1` [compound 14], the IC50 in assay [1] was 1 nM; in assay [2], 50.1 nM; in assay [3], 79.4 nM.

With `O=c1n(CCN2CCCCC2)cnn1CCNCCOc1ccccc1` [compound 16], the IC50 in assay [1] is 10 nM; in assay [2], 158 nM; in assay [3], 1580 nM.

In the case of `O=c1n(-c2ccc(CN3CCC(O)CC3)cc2)cnn1CCNCCOc1ccccc1` [compound 18], the IC50 was 1.58 nM in assay [1], 50.1 nM in assay [2] and 126 nM in assay [3].

Turning to `CCOC(=O)C1CCN(Cc2ccc(-n3cnn(CCNCCOc4ccccc4)c3=O)cc2)CC1` [compound 19], the IC50 was 3.16 nM in assay [1], 63.1 nM in assay [2] and 251 nM in assay [3].

Take `O=c1n(-c2ccc(N3CCC(N4CCCC4)CC3)cc2)cnn1CCNCCOc1ccccc1` [compound 20]: the IC50 in assay [1] is 3.98 nM; in assay [2], 100 nM; in assay [3], 100 nM.

Regarding `O=c1n(-c2ccc(CN3CCC(N4CCCC4)CC3)cc2)cnn1CCNCCOc1ccccc1` [compound 21], the figures for the IC50 in assay [1], in assay [2] and in assay [3] were 1.58 nM, 39.8 nM and 79.4 nM, respectively.

With `O=c1n(-c2ccc(CN3CCOCC3)cc2)cnn1CCNCCOc1ccccc1` [compound 23], the IC50 in assay [1] is 3.16 nM; in assay [2], 158 nM; in assay [3] it was 251 nM.

`O=c1n(-c2ccc(CN3CCOCC3)cc2)cnn1CCNCCOc1ccccc1` [compound 24]: the values for the IC50 in assay [1] and in assay [2] were 5.01 nM and 251 nM, respectively. Also, in assay [3], the “pIC50 α2B” value is on record as 6.6.

Take `O=c1n(-c2ccc(CN3CCc4ccccc4C3)cc2)cnn1CCNCCOc1ccccc1` [compound 27]: the IC50 in assay [1] was 1 nM; in assay [2], 25.1 nM; in assay [3], 79.4 nM.

With `C/C(=C\c1ccccc1)CN1CCC(n2cnn(CCNCCOc3ccccc3)c2=O)CC1` [compound 28], the “pIC50 α2C” value in assay [1] was 8.4. Further, the IC50 in assay [2] is 126 nM; in assay [3], 200 nM.

Turning to `C/C(=C\c1ccccc1)CN1CCC(n2cnn(CCNCCOc3ccccc3)c2=O)CC1` [compound 29], the IC50 in assay [1] was 3.98 nM; in assay [2], 100 nM; in assay [3], 126 nM.

Consider `C/C(=C\c1ccccc1)CN1CCC(n2cnn(CCN(C)CCOc3ccccc3)c2=O)CC1` [compound 30], for which the IC50 is 15.8 nM in assay [1], 398 nM in assay [2] and 200 nM in assay [3].

The record behind these values is US20100029620A1, “SUBSTITUTED TRIAZOLINE, TETRAZOLONE AND IMIDAZOLONE DERIVATIVES FOR USE AS A MEDICINE” (JANSSEN PHARMACEUTICA N.V., priority 2004, published 2010).
